Activity calls are given as the source filed them. The rule behind the calls is not given here.
Tested on: rodent lifetime carcinogenesis bioassay, tumor incidence TD50
Assay: carcinogenic potency in animals, long-term in vivo studies, CPDB compilation (AID 1745844)

## CCOC(=O)C(O)(c1ccc(Cl)cc1)c1ccc(Cl)cc1
mouse, strain B6AKF1, females, oral dosing, site: any site (literature study), lesion: several types, types named in the paper, dosed 82 weeks, study length 82 weeks
  TD50: 621 mg/kg/day
mouse, strain B6AKF1, females, oral dosing, site: lung, lesion: adenoma, dosed 82 weeks, study length 82 weeks
  TD50: 621 mg/kg/day
mouse, strain B6AKF1, males, oral dosing, site: any site (literature study), lesion: several types, types named in the paper, dosed 82 weeks, study length 82 weeks
  TD50: 72.8 mg/kg/day
mouse, strain B6AKF1, males, oral dosing, site: liver, lesion: hepatoma, dosed 82 weeks, study length 82 weeks
  TD50: 69.8 mg/kg/day
mouse, strain B6C3F1, females, in feed, site: any site (literature study), lesion: several types, types named in the paper, dosed 78 weeks, study length 90 weeks
  TD50: 3930 mg/kg/day
mouse, strain B6C3F1, females, in feed, site: liver, lesion: hepatocellular adenoma + hepatocellular carcinoma + neoplastic nodule, dosed 78 weeks, study length 90 weeks
  TD50: 848 mg/kg/day
mouse, strain B6C3F1, females, in feed, site: liver, lesion: hepatocellular carcinoma, dosed 78 weeks, study length 90 weeks
  TD50: 848 mg/kg/day
mouse, strain B6C3F1, females, oral dosing, site: any site (literature study), lesion: several types, types named in the paper, dosed 82 weeks, study length 82 weeks
  TD50: 302 mg/kg/day
mouse, strain B6C3F1, females, oral dosing, site: lung, lesion: adenoma, dosed 82 weeks, study length 82 weeks
  TD50: 621 mg/kg/day
mouse, strain B6C3F1, males, in feed, site: any site (literature study), lesion: several types, types named in the paper, dosed 78 weeks, study length 90 weeks
  TD50: 256 mg/kg/day
mouse, strain B6C3F1, males, in feed, site: liver, lesion: hepatocellular adenoma + hepatocellular carcinoma + neoplastic nodule, dosed 78 weeks, study length 90 weeks
  TD50: 235 mg/kg/day
mouse, strain B6C3F1, males, in feed, site: liver, lesion: hepatocellular carcinoma, dosed 78 weeks, study length 90 weeks
  TD50: 235 mg/kg/day
mouse, strain B6C3F1, males, oral dosing, site: any site (literature study), lesion: several types, types named in the paper, dosed 82 weeks, study length 82 weeks
  TD50: 31.7 mg/kg/day
mouse, strain B6C3F1, males, oral dosing, site: liver, lesion: hepatoma, dosed 82 weeks, study length 82 weeks
  TD50: 43.8 mg/kg/day
rat, strain Carworth Farms, females, in feed, site: mammary gland, lesion: adenofibroma, dosed 104 weeks, study length 104 weeks
  carcinogen call: negative (inactive)
rat, strain Osborne-Mendel, females, in feed, site: adrenal gland, lesion: cortical adenoma, dosed 78 weeks, study length 110 weeks
  TD50: 490 mg/kg/day (inactive)
rat, strain Osborne-Mendel, males, in feed, site: adrenal gland, lesion: cortical adenoma, dosed 78 weeks, study length 110 weeks
  TD50: 186 mg/kg/day (inactive)
rat, strain Osborne-Mendel, males, in feed, site: liver, lesion: hepatocellular adenoma + hepatocellular carcinoma + neoplastic nodule, dosed 78 weeks, study length 110 weeks
  TD50: 1600 mg/kg/day

## CC(=O)NNc1ccccc1
mouse, strain Swiss albino, females, in drinking water, site: blood vessels, lesion: angioma, dosed 111 weeks, study length 111 weeks
  TD50: 117 mg/kg/day
mouse, strain Swiss albino, females, in drinking water, site: blood vessels, lesion: angiosarcoma, dosed 111 weeks, study length 111 weeks
  TD50: 117 mg/kg/day
mouse, strain Swiss albino, females, in drinking water, site: blood vessels, lesion: several types, types named in the paper, dosed 111 weeks, study length 111 weeks
  TD50: 49 mg/kg/day
mouse, strain Swiss albino, females, in drinking water, site: liver, lesion: angioma, dosed 111 weeks, study length 111 weeks
  TD50: 105 mg/kg/day
mouse, strain Swiss albino, females, in drinking water, site: liver, lesion: angiosarcoma, dosed 111 weeks, study length 111 weeks
  TD50: 105 mg/kg/day
mouse, strain Swiss albino, females, in drinking water, site: liver, lesion: several types, types named in the paper, dosed 111 weeks, study length 111 weeks
  TD50: 44.8 mg/kg/day
mouse, strain Swiss albino, females, in drinking water, site: lung, lesion: adenoma, dosed 111 weeks, study length 111 weeks
  TD50: 413 mg/kg/day (inactive)
mouse, strain Swiss albino, males, in drinking water, site: blood vessels, lesion: angioma, dosed 106 weeks, study length 106 weeks
  TD50: 113 mg/kg/day
mouse, strain Swiss albino, males, in drinking water, site: blood vessels, lesion: angiosarcoma, dosed 106 weeks, study length 106 weeks
  TD50: 161 mg/kg/day
mouse, strain Swiss albino, males, in drinking water, site: blood vessels, lesion: several types, types named in the paper, dosed 106 weeks, study length 106 weeks
  TD50: 59.8 mg/kg/day
mouse, strain Swiss albino, males, in drinking water, site: liver, lesion: angioma, dosed 106 weeks, study length 106 weeks
  TD50: 128 mg/kg/day
mouse, strain Swiss albino, males, in drinking water, site: liver, lesion: angiosarcoma, dosed 106 weeks, study length 106 weeks
  TD50: 146 mg/kg/day
mouse, strain Swiss albino, males, in drinking water, site: liver, lesion: several types, types named in the paper, dosed 106 weeks, study length 106 weeks
  TD50: 62.1 mg/kg/day
mouse, strain Swiss albino, males, in drinking water, site: lung, lesion: adenocarcinoma, dosed 106 weeks, study length 106 weeks
  carcinogen call: negative (inactive)
mouse, strain Swiss albino, males, in drinking water, site: lung, lesion: adenoma, dosed 106 weeks, study length 106 weeks
  carcinogen call: negative (inactive)

## C1CCCNCCC1
rat, strain MRC, females, in drinking water, site: any site (literature study), lesion: several types, types named in the paper, dosed 75 weeks, study length 104 weeks
  TD50: 15.8 mg/kg/day
rat, strain MRC, males, in drinking water, site: any site (literature study), lesion: several types, types named in the paper, dosed 75 weeks, study length 104 weeks
  TD50: 6.37 mg/kg/day

## CCC(C)[N+](=O)[O-] (stereo not given)
rat, strain Fischer 344, males, by gavage, site: liver, lesion: hepatocellular carcinoma, dosed 50 weeks, study length 83 weeks
  TD50: 2.86 mg/kg/day

## O=NN1CCCCCC1
mouse, strain BALB/c, females, by gavage, site: esophagus, lesion: squamous-cell papilloma, dosed 30 weeks, study length 49 weeks
  TD50: 19.7 mg/kg/day
mouse, strain BALB/c, females, by gavage, site: liver, lesion: several types, types named in the paper, dosed 30 weeks, study length 49 weeks
  TD50: 0.797 mg/kg/day
mouse, strain BALB/c, females, by gavage, site: lung, lesion: several types, types named in the paper, dosed 30 weeks, study length 49 weeks
  TD50: 7.44 mg/kg/day
mouse, strain BALB/c, females, by gavage, site: nasal mucosa, lesion: several types, types named in the paper, dosed 30 weeks, study length 49 weeks
  TD50: 4.5 mg/kg/day
mouse, strain Charles River CD1, females, by gavage, site: esophagus, lesion: squamous-cell papilloma, dosed 30 weeks, study length 62 weeks
  TD50: 12.7 mg/kg/day
mouse, strain Charles River CD1, females, by gavage, site: forestomach, lesion: several types, types named in the paper, dosed 30 weeks, study length 62 weeks
  TD50: 5.65 mg/kg/day
mouse, strain Charles River CD1, females, by gavage, site: liver, lesion: several types, types named in the paper, dosed 30 weeks, study length 62 weeks
  TD50: 0.746 mg/kg/day
mouse, strain Charles River CD1, females, by gavage, site: lung, lesion: several types, types named in the paper, dosed 30 weeks, study length 62 weeks
  TD50: 2.71 mg/kg/day
mouse, strain Charles River CD1, females, by gavage, site: nasal mucosa, lesion: one or several types, types not named, dosed 30 weeks, study length 62 weeks
  TD50: 26 mg/kg/day
mouse, strain NZO/BlGd, females, in drinking water, site: esophagus, lesion: several types, types named in the paper, dosed 32 weeks, study length 74 weeks
  TD50: 0.725 mg/kg/day
mouse, strain NZO/BlGd, females, in drinking water, site: liver, lesion: hepatocellular carcinoma, dosed 32 weeks, study length 74 weeks
  TD50: 3.21 mg/kg/day
mouse, strain NZO/BlGd, females, in drinking water, site: oropharynx, lesion: several types, types named in the paper, dosed 32 weeks, study length 74 weeks
  TD50: 6.37 mg/kg/day
mouse, strain NZO/BlGd, females, in drinking water, site: stomach, glandular, lesion: several types, types named in the paper, dosed 32 weeks, study length 74 weeks
  TD50: 4.05 mg/kg/day
mouse, strain NZO/BlGd, females, in drinking water, site: stomach, squamous, lesion: several types, types named in the paper, dosed 32 weeks, study length 74 weeks
  TD50: 0.415 mg/kg/day
mouse, strain NZO/BlGd, males, in drinking water, site: esophagus, lesion: several types, types named in the paper, dosed 32 weeks, study length 60 weeks
  TD50: 0.313 mg/kg/day
mouse, strain NZO/BlGd, males, in drinking water, site: liver, lesion: hepatocellular carcinoma, dosed 32 weeks, study length 60 weeks
  TD50: 8.03 mg/kg/day
mouse, strain NZO/BlGd, males, in drinking water, site: lung, lesion: several types, types named in the paper, dosed 32 weeks, study length 60 weeks
  TD50: 1.93 mg/kg/day
mouse, strain NZO/BlGd, males, in drinking water, site: oropharynx, lesion: several types, types named in the paper, dosed 32 weeks, study length 60 weeks
  TD50: 1.41 mg/kg/day
mouse, strain NZO/BlGd, males, in drinking water, site: stomach, glandular, lesion: several types, types named in the paper, dosed 32 weeks, study length 60 weeks
  TD50: 3.23 mg/kg/day
mouse, strain NZO/BlGd, males, in drinking water, site: stomach, squamous, lesion: several types, types named in the paper, dosed 32 weeks, study length 60 weeks
  TD50: 0.448 mg/kg/day
mouse, strain SENCAR, females, by gavage, site: esophagus, lesion: squamous-cell papilloma, dosed 30 weeks, study length 67 weeks
  TD50: 6.47 mg/kg/day
mouse, strain SENCAR, females, by gavage, site: forestomach, lesion: several types, types named in the paper, dosed 30 weeks, study length 67 weeks
  TD50: 2.25 mg/kg/day
mouse, strain SENCAR, females, by gavage, site: liver, lesion: several types, types named in the paper, dosed 30 weeks, study length 67 weeks
  TD50: 1.92 mg/kg/day
mouse, strain SENCAR, females, by gavage, site: lung, lesion: several types, types named in the paper, dosed 30 weeks, study length 67 weeks
  TD50: 0.783 mg/kg/day
mouse, strain SENCAR, females, by gavage, site: nasal mucosa, lesion: several types, types named in the paper, dosed 30 weeks, study length 67 weeks
  TD50: 6.47 mg/kg/day

## C[C@H](CCC(=O)O)[C@H]1CC[C@H]2[C@@H]3CC[C@@H]4C[C@H](O)CC[C@]4(C)[C@H]3CC[C@]12C
mouse, strain B6C3F1, females, by gavage, site: any site (literature study), lesion: several types, types named in the paper, dosed 103 weeks, study length 105 weeks
  TD50: 960 mg/kg/day (inactive)
mouse, strain B6C3F1, females, by gavage, site: liver, lesion: hepatocellular adenoma + hepatocellular carcinoma + neoplastic nodule, dosed 103 weeks, study length 105 weeks
  TD50: 1140 mg/kg/day
mouse, strain B6C3F1, females, by gavage, site: lung, lesion: alveolar/bronchiolar adenoma + alveolar/bronchiolar carcinoma, dosed 103 weeks, study length 105 weeks
  TD50: 1030 mg/kg/day
mouse, strain B6C3F1, males, by gavage, site: any site (literature study), lesion: several types, types named in the paper, dosed 103 weeks, study length 105 weeks
  carcinogen call: negative (inactive)
mouse, strain B6C3F1, males, by gavage, site: lung, lesion: alveolar/bronchiolar adenoma + alveolar/bronchiolar carcinoma, dosed 103 weeks, study length 105 weeks
  TD50: 834 mg/kg/day
rat, strain Fischer 344, females, by gavage, site: any site (literature study), lesion: several types, types named in the paper, dosed 103 weeks, study length 104 weeks
  TD50: 686 mg/kg/day (inactive)
rat, strain Fischer 344, females, by gavage, site: liver, lesion: hepatocellular adenoma + hepatocellular carcinoma + neoplastic nodule, dosed 103 weeks, study length 104 weeks
  TD50: 1890 mg/kg/day
rat, strain Fischer 344, males, by gavage, site: any site (literature study), lesion: several types, types named in the paper, dosed 103 weeks, study length 104 weeks
  TD50: 501 mg/kg/day (inactive)
rat, strain Fischer 344, males, by gavage, site: liver, lesion: hepatocellular adenoma + hepatocellular carcinoma + neoplastic nodule, dosed 103 weeks, study length 104 weeks
  TD50: 2250 mg/kg/day

— PubChem BioAssay AID1745844 (Carcinogenic Potency Database (CPDB), 2022)
